Source: patent US4241056A, “Penicillins and salts thereof” (Boehringer Ingelheim GmbH, priority 1978, dated 1980)
Like-named read-outs stand apart in the source and are kept apart here.

What was measured:
[1] = system: Staphylococcus aureus SG 511; test: MIC, serial dilution test in the microtiter system; type: cell-based; conditions: SG511, 18 h, Staph. Aureus SG 511, 37° C., 18-20 hours
Procedure: (§1) The tests were performed according to the method of the serial dilution test in the microtiter system. The effect of the substances on bacteriostasis was examined in a fluid medium. The activity on bacteriostatis was examined at the following concentrations:
(§2) 10 gm of peptone, 8 gm of meat extract-oxoid, 3 gm of sodium chloride, 2 gm of sec. sodium phosphate were diluted with distilled water to 1000 ml (pH 7.2-7.4). Only in the test against streptococci 1% of glucose was added. The age of the primary cultures was about 20 hours. The standardizations of the pathogen suspension was effected by using a photometer according to "Eppendorf" (test tube diameter 14 mm, filter 546 nm) with the aid of the turbidity of a comparison suspension consisting of barium sulfate, this suspension being prepared by addition of 3.0 ml of 1% barium chloride solution to 97 ml of 1% sulfuric acid. After the standardization, streptococcus aronson were further diluted to a concentration of 1:15 and the other germs to a concentration of 1:1500 by menas of a sodium chloride solution.
(§3) 16 mg of the test substance were put into a 10 ml measuring flask and filled up to the mark with the solvent. The further dilution series was standardized with distilled water or the respective solvent.
(§4) The cavities of the microtiter plates were filled with 0.2 ml of nutrient medium. Then, 0.01 ml of the corresponding test substance dilution was added and inoculated with 0.01 ml of the standardized suspension. The bacteria were incubated at 37° C. for 18-20 hours. Control tests merely using the solvent were carried out simultaneously.
(§5) The measurement was carried out macroscopically to determine the minimal inhibitory (threshold) concentration, i.e. the lowest still bacteriostatically effective concentration.
(§6) Staphylococcus aureus SG 511, streptococcus aronson, streptococcus faecalis ATCC 10541, escherichia coli ATCC 9637, 11 775 and escherichia coli 12593/74 (β-lactamase carrier), pseudomonas aeruginosa hamburgensis and ATCC 10145, serratia marcescens ATCC 13 880, klebsiella pneumoniae ATCC 10 031 and 272 and proteus mirabilis hamburgensis.

[2] = system: escherichia coli 12593/74 (β-lactamase carrier); test: MIC, serial dilution test in the microtiter system; type: cell-based; conditions: 18 h, E. coli 12593/74 (β-lactamase carrier), 37° C., 18-20 hours
Procedure: as §1, §2, §3, §4, §5, §6

[3] = system: escherichia coli ATCC 11775; test: MIC, serial dilution test in the microtiter system; type: cell-based; conditions: ATCC11775, 18 h, E. coli ATCC 11775, 37° C., 18-20 hours
Procedure: as §1, §2, §3, §4, §5, §6

[4] = system: escherichia coli ATCC 9637; test: MIC, serial dilution test in the microtiter system; type: cell-based; conditions: ATCC9637, 18 h, E. coli ATCC 9637, 37° C., 18-20 hours
Procedure: as §1, §2, §3, §4, §5, §6

[5] = system: klebsiella pneumoniae 272; test: MIC, serial dilution test in the microtiter system; type: cell-based; conditions: 18 h, klebs pneum. 272, 37° C., 18-20 hours
Procedure: as §1, §2, §3, §4, §5, §6

[6] = system: klebsiella pneumoniae ATCC 10 031; test: MIC, serial dilution test in the microtiter system; type: cell-based; conditions: 18 h, klebs pneum ATCC 10031, 37° C., 18-20 hours
Procedure: as §1, §2, §3, §4, §5, §6

[7] = system: proteus mirabilis hamburgensis; test: MIC, serial dilution test in the microtiter system; type: cell-based; conditions: 18 h, prot. mirabilis, 37° C., 18-20 hours
Procedure: as §1, §2, §3, §4, §5, §6

[8] = system: pseudomonas aeruginosa ATCC 10145; test: MIC, serial dilution test in the microtiter system; type: cell-based; conditions: ATCC10145, 18 h, pseud. aerug. ATCC 10145, 37° C., 18-20 hours
Procedure: as §1, §2, §3, §4, §5, §6

[9] = system: pseudomonas aeruginosa hamburgensis; test: MIC, serial dilution test in the microtiter system; type: cell-based; conditions: 18 h, pseud. aerug. hamb., 37° C., 18-20 hours
Procedure: as §1, §2, §3, §4, §5, §6

[10] = system: serratia marcescens ATCC 13 880; test: MIC, serial dilution test in the microtiter system; type: cell-based; conditions: ATCC13, 18 h, serrat marcesc., 37° C., 18-20 hours
Procedure: as §1, §2, §3, §4, §5, §6

streptococcus aronson = test: MIC, serial dilution test in the microtiter system; type: cell-based; conditions: 18 h, strept. aronson, 1% glucose added, 37° C., 18-20 hours
Procedure: as §1, §2, §3, §4, §5, §6

[11] = system: streptococcus faecalis ATCC 10541; test: MIC, serial dilution test in the microtiter system; type: cell-based; conditions: Enterococcus faecalis, ATCC10541, 18 h; strept. faecal.; 37° C., 18-20 hours
Procedure: as §1, §2, §3, §4, §5, §6

E. coli ATCC 11775 [12] = test: Influence of the size of the inoculum on the MIC-values; type: cell-based; conditions: Escherichia coli
Procedure: (§7) For the penicillins C and H, which are typical representatives for this invention, the influence of the size of the inoculum on the MIC-values against ps. aerug. hamburg. and E. coli ATCC 11775 in the microtiter system was determined. Thereby 3 different sizes of inoculum (3.3×10^6, 3.3×10^4 and 3.3×10^2 in E. coli and 4.7×10^6, 4.7×10^4 and 4.7×10^2 in pseudomonas) were used. The reference system was again penicillin Q.

pseud. aerug. hamburg. = test: as above; type: cell-based; conditions: Pseudomonas aeruginosa
Procedure: as §7

[13] = Serum (blood) level in rats; type: in vivo; conditions: rat, average from 3 rats; for concentration at 0.5 h: 30 min.; for concentration at 1 h: 60 min.; for concentration at 2 h: 120 min.
Procedure: For the determination of the serum level in rats, typical representatives of the penicillins according to the invention were administered at a dosage of 10 mg/kg subcutaneously or 100 mg/kg per os to groups of 3 female FW 49 rats (weight 100 to 130 gm) each. Blood tests taken from the heart were worked up, and the obtained sera were tested by the cylinder test-agar diffusion method on plates with sarcina lutea ATCC 15957. The samples were compared with standard curves.

E. coli ATCC 11775 [14] = test: In vivo activity against experimental infection in mice; set-up: species or system mouse (NMRI); conditions: Escherichia coli, 168 h, 7 days observation, read-out: ED50 (dose at which 50% of the animals survived)
Procedure: (§8) A number of compounds of this invention were tested in vivo in mice against experimental infections. Bacteria E. coli ATCC 11775 and pseudomonas aeruginosa walter were used as pathogens. An intraperitoneal infection with 0.2 ml of a 5% mucin suspension of the bacteria was induced. This corresponds to about 2×10^6 germs E. coli and 8×10^5 germs pseudomonas/mouse. Female NMRI mice were divided into groups of 10 animals each, two control groups remained untreated, the remaining groups were treated with different doses of the respective penicillins for the determination of the ED50 (dose at which 50% of the animals survived). The groups with the E. coli infection were treated with the substance 3 times on the first day (1, 4 and 7 hours post-infectionem) and for 2 days thereafter twice a day. The groups with the pseudomonas infection were treated with the substance applied 6 times on the first day (1, 3, 6, 9, 12, and 15 hours post-infectionem) and for 2 days thereafter twice a day. The observation time was in both cases 7 days.

[15] = system: pseudomonas aeruginosa walter; test: as above; set-up: species or system mouse (NMRI); conditions: sc, 168 h, subcutaneous, 7 days observation, read-out: ED50 (dose at which 50% of the animals survived)
Procedure: as §8

Pseudomonas = conditions: in vivo as well as in vitro; cited from earlier work

Compound | MIC [1] | MIC [2] | MIC [3] | MIC [4] | MIC [5] | MIC [6] | MIC [7] | MIC [8] | MIC [9] | MIC [10] | MIC (streptococcus aronson) | MIC [11] | concentration at 0.5 h ([13]; oral 100 mg/kg) | concentration at 1 h ([13]; oral 100 mg/kg) | concentration at 2 h ([13]; oral 100 mg/kg) | concentration at 0.5 h ([13]; sc, subcutaneous 10 mg/kg) | concentration at 1 h ([13]; sc, subcutaneous 10 mg/kg) | concentration at 2 h ([13]; sc, subcutaneous 10 mg/kg) | ED50 (E. coli ATCC 11775 [14]; ATCC11775, po, peroral) | ED50 (E. coli ATCC 11775 [14]; ATCC11775, sc, subcutaneous) | further results
CC1(C)S[C@@H]2[C@H](NC(=O)[C@H](NC(=O)Nc3cnc(C4CC4)nc3O)c3ccc(O)cc3)C(=O)N2[C@H]1C(=O)O [C, D-α-[3-(2-cyclopropyl-4-hydroxy-5-pyrimidyl)-ureido]-p-hdroxybenzyl-penicillin sodium] | 0.3 µg/mL | 80 µg/mL | 1.25 µg/mL | 2.5 µg/mL | 80 µg/mL | 40 µg/mL | 1.25 µg/mL | 1.25 µg/mL | 2.5 µg/mL | 1.25 µg/mL | 0.08 µg/mL | 10 µg/mL | 3300 ng/mL | 4800 ng/mL | 1000 ng/mL | 5100 ng/mL | 6800 ng/mL | 400 ng/mL | 30 mg/kg | 1.5 mg/kg | MIC (E. coli ATCC 11775 [12]; ATCC11775, inoculum 3.3 × 10^2 germs/ml): 2.5 µg/mL; MIC (E. coli ATCC 11775 [12]; ATCC11775, inoculum 3.3 × 10^4 germs/ml): 2.5 µg/mL; MIC (E. coli ATCC 11775 [12]; ATCC11775, inoculum 3.3 × 10^6 germs/ml): 2.5 µg/mL; MIC (pseud. aerug. hamburg.; inoculum 4.7 × 10^2 germs/ml): 2.5 µg/mL; MIC (pseud. aerug. hamburg.; inoculum 4.7 × 10^4 germs/ml): 5 µg/mL; MIC (pseud. aerug. hamburg.; inoculum 4.7 × 10^6 germs/ml): > 80 µg/mL; ED50 [15]: 7 mg/kg
CC1(C)S[C@@H]2[C@H](NC(=O)C(C(=O)O)c3ccccc3)C(=O)N2[C@H]1C(=O)O (stereo partly drawn) [Carbenicillin] |  |  |  |  |  |  |  |  |  |  |  |  |  |  |  |  |  |  |  |  | antipseudomonal activity (Pseudomonas): only a poor activity
CC1(C)S[C@@H]2[C@H](NC(=O)[C@H](NC(=O)Nc3cncnc3O)c3ccc(O)cc3)C(=O)N2[C@H]1C(=O)O [Compound A, D-α-[3-(4-hydroxy-5-pyrimidyl)-ureido]-p-hydroxybenzylpenicillin sodium] | 0.3 µg/mL | > 80 µg/mL | 2.5 µg/mL | 2.5 µg/mL | 80 µg/mL | 80 µg/mL | 0.6 µg/mL | 2.5 µg/mL | 5 µg/mL | 5 µg/mL | 0.08 µg/mL | 10 µg/mL | 9100 ng/mL | 9600 ng/mL | 2900 ng/mL | 9300 ng/mL | 8600 ng/mL | 400 ng/mL | 50 mg/kg | 6 mg/kg | ED50 [15]: 50 mg/kg
CC1(C)S[C@@H]2[C@H](NC(=O)[C@H](NC(=O)Nc3cnc(Cc4ccc(Cl)cc4)nc3O)c3ccc(O)cc3)C(=O)N2[C@H]1C(=O)O [D, D-α-[3-(2-p-chlorobenzyl-4-hydroxy-5-pyrimidyl)-ureido]-p-hydroxybenzyl-penicillin sodium] | 0.08 µg/mL | 80 µg/mL | 1.25 µg/mL | 2.5 µg/mL | 10 µg/mL | 5 µg/mL | 1.25 µg/mL | 2.5 µg/mL | 5 µg/mL | 1.25 µg/mL | 0.02 µg/mL | 10 µg/mL |  | 4100 ng/mL | 1000 ng/mL |  | 7100 ng/mL | 300 ng/mL |  | 9 mg/kg | 
